Laboratory results reported in ChEMBL document CHEMBL4308859, “Discovery of Novel Central Nervous System Penetrant Metabotropic Glutamate Receptor Subtype 2 (mGlu2) Negative Allosteric Modulators (NAMs) Based on Functionalized Pyrazolo[1,5- a]pyrimidine-5-carboxamide and Thieno[3,2- b]pyridine-5-carboxamide Cores” (J Med Chem, 2018).

How the values were obtained:
[1] = molecular target: Metabotropic glutamate receptor 2 (Rattus norvegicus, UniProt P31421); test: (§1) Negative allosteric modulation of rat mGlu2R expressed in HEK293 cells co-expressing Galpha15 assessed as decrease in glutamate-induced calcium mobilization preincubated for 2.3 mins followed by glutamate addition and measured after 1.7 mins by Fluo-4-AM dye based fluorescence assay; type: functional, cell-based
[2] = molecular target: Metabotropic glutamate receptor 2 (Rattus norvegicus) (UniProt P31421); test: as §1, with “mobilization at 30 uM” for “mobilization”, “assay relative to control” for “assay”; type: functional, cell-based
[3] = Fraction unbound in rat plasma after 4 hrs by equilibrium dialysis method; type: ADME, cell-free
[4] = Fraction unbound in human plasma after 4 hrs by equilibrium dialysis method; type: ADME, cell-free
[5] = Fraction unbound in rat brain; type: ADME, tissue-based
[6] = Brain to plasma partition coefficient, Kp of the compound in Sprague-Dawley rat at 0.2 mg/kg, iv administered as cassette dose by LC-MS/MS analysis; type: ADME, organism-based; settings: brain and plasma
[7] = Unbound brain to plasma ratio in Sprague-Dawley rat at 0.2 mg/kg, iv administered as cassette dose by LC-MS/MS analysis; type: ADME, organism-based; settings: brain and plasma, read-out: K(p,uu,brain)
[8] = molecular target: T1, Metabotropic glutamate receptor 1 (Homo sapiens, UniProt Q13255); test: Negative allosteric modulation of mGlu1R (unknown origin)
[9] = molecular target: Metabotropic glutamate receptor 3 (Homo sapiens, UniProt Q14832); test: Negative allosteric modulation of mGlu3R (unknown origin)
[10] = molecular target: Metabotropic glutamate receptor 4 (Homo sapiens, UniProt Q14833); test: Negative allosteric modulation of mGlu4R (unknown origin)
[11] = molecular target: T2, Metabotropic glutamate receptor 5 (Homo sapiens, UniProt P41594); test: Negative allosteric modulation of mGlu5R (unknown origin)
[12] = molecular target: T3, Metabotropic glutamate receptor 6 (Homo sapiens, UniProt O15303); test: Negative allosteric modulation of mGlu6R (unknown origin)
[13] = molecular target: Metabotropic glutamate receptor 7 (Homo sapiens, UniProt Q14831); test: Negative allosteric modulation of mGlu7R (unknown origin)
[14] = molecular target: Metabotropic glutamate receptor 8 (Homo sapiens, UniProt O00222); test: Negative allosteric modulation of mGlu8R (unknown origin)
[15] = Plasma clearance in mouse; type: ADME, organism-based
[16] = Brain to plasma partition coefficient, Kp of the compound in rat; type: ADME; settings: brain and plasma
[17] = Plasma clearance in Sprague-Dawley rat at 0.2 mg/kg, iv administered as cassette dose by LC-MS/MS analysis; type: ADME, organism-based
[18] = Half life in Sprague-Dawley rat at 0.2 mg/kg, iv administered as cassette dose by LC-MS/MS analysis; type: ADME, organism-based; settings: in vivo; for half-life: Sprague-Dawley
[19] = Volume of distribution at steady state in Sprague-Dawley rat at 0.2 mg/kg, iv administered as cassette dose by LC-MS/MS analysis; type: ADME, organism-based; settings: in vivo, read-out: Vdss
[20] = molecular target: Metabotropic glutamate receptor 2 (Homo sapiens, UniProt Q14416); test: Negative allosteric modulation of mGlu2R (unknown origin)
[21] = Plasma clearance in Sprague-Dawley rat at 1 mg/kg, iv by LC-MS/MS analysis; type: ADME, organism-based
[22] = Half life in Sprague-Dawley rat at 1 mg/kg, iv by LC-MS/MS analysis; type: ADME, organism-based; settings: in vivo
[23] = Volume of distribution at steady state in Sprague-Dawley rat at 1 mg/kg, iv by LC-MS/MS analysis; type: ADME, organism-based; settings: in vivo, read-out: Vdss
[24] = molecular target: Metabotropic glutamate receptor 3 (Rattus norvegicus, UniProt P31422); test: Negative allosteric modulation of rat mGlu3R expressed in Trex cells co-expressing Galpha15 assessed as decrease in glutamate-induced calcium mobilization preincubated for 2.3 mins followed by glutamate addition and measured after 2.6 mins by Fluo-4-AM dye based fluorescence assay; type: functional, cell-based
[25] = molecular target: T1, Metabotropic glutamate receptor 1; test: Negative allosteric modulation of human mGlu1R expressed in Trex293 cells assessed as decrease in glutamate-induced calcium mobilization preincubated for 2.3 mins followed by glutamate addition and measured after 2.6 mins by Fluo-4-AM dye based fluorescence assay; type: functional, cell-based
[26] = molecular target: T2, Metabotropic glutamate receptor 5; test: Negative allosteric modulation of human mGlu5R expressed in Trex293 cells assessed as decrease in glutamate-induced calcium mobilization preincubated for 2.3 mins followed by glutamate addition and measured after 2.6 mins by Fluo-4-AM dye based fluorescence assay; type: functional, cell-based
[27] = molecular target: Metabotropic glutamate receptor 4 (Rattus norvegicus, UniProt P31423); test: Negative allosteric modulation of rat mGlu4 receptor expressed in HEK cells harboring GIRK assessed as reduction in glutamate-induced thallium flux preincubated for 2.3 mins followed by glutamate addition measured after 2.6 mins by BTC-AM-dye based fluorescence assay; type: cell-based
[28] = molecular target: T3, Metabotropic glutamate receptor 6; test: Negative allosteric modulation of human mGlu6 receptor expressed in HEK cells harboring GIRK assessed as reduction in glutamate-induced thallium flux preincubated for 2.3 mins followed by glutamate addition measured after 2.6 mins by BTC-AM-dye based fluorescence assay; type: cell-based
[29] = molecular target: Metabotropic glutamate receptor 7 (Rattus norvegicus, UniProt P35400); test: Negative allosteric modulation of rat mGlu7 receptor expressed in HEK cells harboring GIRK assessed as reduction in […]-induced thallium flux preincubated for 2.3 mins followed by […] addition measured after 2.6 mins by BTC-AM-dye based fluorescence assay; type: cell-based
[30] = molecular target: Metabotropic glutamate receptor 8 (Rattus norvegicus, UniProt P70579); test: Negative allosteric modulation of rat mGlu8 receptor expressed in HEK cells harboring GIRK assessed as reduction in glutamate-induced thallium flux preincubated for 2.3 mins followed by glutamate addition measured after 2.6 mins by BTC-AM-dye based fluorescence assay; type: cell-based
[31] = Cmax in Sprague-Dawley rat plasma at 10 mg/kg, ip by LC-MS/MS analysis; type: ADME, organism-based; design: dose 10 mg/kg, route intraperitoneal
[32] = AUC in Sprague-Dawley rat plasma at 10 mg/kg, ip by LC-MS/MS analysis; type: ADME, organism-based; settings: in vivo
[33] = Cmax in Sprague-Dawley rat brain at 10 mg/kg, ip by LC-MS/MS analysis; type: ADME, organism-based; design: dose 10 mg/kg, route intraperitoneal
[34] = AUC in Sprague-Dawley rat brain at 10 mg/kg, ip by LC-MS/MS analysis; type: ADME, organism-based; settings: in vivo
[35] = Ratio of AUC in brain to plasma of Sprague-Dawley rat at 10 mg/kg, ip by LC-MS/MS analysis; type: ADME, organism-based; settings: brain and plasma, read-out: Ratio AUC
[36] = Unbound Cmax in Sprague-Dawley rat brain at 10 mg/kg, ip by LC-MS/MS analysis; type: ADME, organism-based; settings: in vivo
[37] = Unbound AUC in Sprague-Dawley rat brain at 10 mg/kg, ip by LC-MS/MS analysis; type: ADME, organism-based; settings: in vivo

T1 sequence (Q13255 whole entry): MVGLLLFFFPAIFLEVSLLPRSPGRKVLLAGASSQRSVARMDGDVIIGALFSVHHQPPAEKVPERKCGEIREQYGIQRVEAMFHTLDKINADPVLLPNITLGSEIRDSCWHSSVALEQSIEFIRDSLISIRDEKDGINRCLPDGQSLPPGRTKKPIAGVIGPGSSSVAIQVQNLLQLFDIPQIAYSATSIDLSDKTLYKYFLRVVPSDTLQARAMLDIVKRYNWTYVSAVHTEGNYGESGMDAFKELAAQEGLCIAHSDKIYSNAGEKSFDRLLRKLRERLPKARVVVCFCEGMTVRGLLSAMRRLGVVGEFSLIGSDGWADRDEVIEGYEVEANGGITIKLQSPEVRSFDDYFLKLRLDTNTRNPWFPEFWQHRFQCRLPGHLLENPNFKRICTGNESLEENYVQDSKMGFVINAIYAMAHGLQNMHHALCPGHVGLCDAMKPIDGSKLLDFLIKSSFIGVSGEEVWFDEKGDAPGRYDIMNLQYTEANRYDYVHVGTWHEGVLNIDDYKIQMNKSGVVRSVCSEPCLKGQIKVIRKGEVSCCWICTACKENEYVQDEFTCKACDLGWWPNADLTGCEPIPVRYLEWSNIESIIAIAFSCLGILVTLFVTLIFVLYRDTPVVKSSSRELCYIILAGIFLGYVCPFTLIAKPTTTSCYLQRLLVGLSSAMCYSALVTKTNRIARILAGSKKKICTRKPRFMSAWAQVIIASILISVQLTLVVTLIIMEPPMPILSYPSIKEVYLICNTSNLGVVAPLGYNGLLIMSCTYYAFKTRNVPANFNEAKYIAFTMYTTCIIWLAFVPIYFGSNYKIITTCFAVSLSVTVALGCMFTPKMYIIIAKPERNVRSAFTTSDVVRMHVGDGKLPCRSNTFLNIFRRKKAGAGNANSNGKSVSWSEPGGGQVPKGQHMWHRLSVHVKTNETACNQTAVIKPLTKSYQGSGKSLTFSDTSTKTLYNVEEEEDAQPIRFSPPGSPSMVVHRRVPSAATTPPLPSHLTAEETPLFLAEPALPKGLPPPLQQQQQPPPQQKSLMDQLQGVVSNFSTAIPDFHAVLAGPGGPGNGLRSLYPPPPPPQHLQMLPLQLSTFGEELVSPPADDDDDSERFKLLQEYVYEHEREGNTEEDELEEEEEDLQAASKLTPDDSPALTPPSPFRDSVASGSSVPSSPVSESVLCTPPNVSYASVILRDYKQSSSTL
T2 sequence (P41594 whole entry): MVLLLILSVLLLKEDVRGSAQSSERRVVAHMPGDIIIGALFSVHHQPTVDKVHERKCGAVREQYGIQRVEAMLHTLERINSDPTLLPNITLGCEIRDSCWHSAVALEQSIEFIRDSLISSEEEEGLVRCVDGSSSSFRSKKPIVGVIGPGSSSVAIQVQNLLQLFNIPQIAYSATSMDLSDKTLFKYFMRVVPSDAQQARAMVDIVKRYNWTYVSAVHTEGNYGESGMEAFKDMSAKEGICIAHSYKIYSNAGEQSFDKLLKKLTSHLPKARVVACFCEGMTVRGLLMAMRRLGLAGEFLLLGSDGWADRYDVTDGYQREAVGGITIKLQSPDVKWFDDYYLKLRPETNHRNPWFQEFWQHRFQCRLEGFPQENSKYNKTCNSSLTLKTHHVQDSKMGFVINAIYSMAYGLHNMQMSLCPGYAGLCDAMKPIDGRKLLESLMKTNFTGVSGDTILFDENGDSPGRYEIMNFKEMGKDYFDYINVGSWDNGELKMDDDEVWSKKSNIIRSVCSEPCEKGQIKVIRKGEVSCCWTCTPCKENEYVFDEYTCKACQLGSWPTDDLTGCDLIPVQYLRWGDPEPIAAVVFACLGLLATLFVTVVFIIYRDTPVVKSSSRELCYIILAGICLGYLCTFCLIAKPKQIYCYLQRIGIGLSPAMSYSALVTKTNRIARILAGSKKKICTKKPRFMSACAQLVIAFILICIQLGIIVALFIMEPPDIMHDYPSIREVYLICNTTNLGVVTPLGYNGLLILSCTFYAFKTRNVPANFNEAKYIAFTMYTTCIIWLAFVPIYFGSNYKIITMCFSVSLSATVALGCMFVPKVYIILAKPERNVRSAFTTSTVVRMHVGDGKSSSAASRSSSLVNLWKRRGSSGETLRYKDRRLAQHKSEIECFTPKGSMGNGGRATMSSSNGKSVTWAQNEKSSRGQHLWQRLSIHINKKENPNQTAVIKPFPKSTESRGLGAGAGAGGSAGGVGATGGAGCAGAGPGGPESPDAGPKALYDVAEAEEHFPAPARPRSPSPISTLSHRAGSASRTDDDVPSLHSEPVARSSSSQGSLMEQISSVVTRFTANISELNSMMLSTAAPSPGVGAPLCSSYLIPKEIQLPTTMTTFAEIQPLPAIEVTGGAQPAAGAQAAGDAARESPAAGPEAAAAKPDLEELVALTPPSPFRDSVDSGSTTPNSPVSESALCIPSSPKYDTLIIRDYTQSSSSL
Sequence of Metabotropic glutamate receptor 2 (Rattus norvegicus, UniProt P31421) (P31421 whole entry): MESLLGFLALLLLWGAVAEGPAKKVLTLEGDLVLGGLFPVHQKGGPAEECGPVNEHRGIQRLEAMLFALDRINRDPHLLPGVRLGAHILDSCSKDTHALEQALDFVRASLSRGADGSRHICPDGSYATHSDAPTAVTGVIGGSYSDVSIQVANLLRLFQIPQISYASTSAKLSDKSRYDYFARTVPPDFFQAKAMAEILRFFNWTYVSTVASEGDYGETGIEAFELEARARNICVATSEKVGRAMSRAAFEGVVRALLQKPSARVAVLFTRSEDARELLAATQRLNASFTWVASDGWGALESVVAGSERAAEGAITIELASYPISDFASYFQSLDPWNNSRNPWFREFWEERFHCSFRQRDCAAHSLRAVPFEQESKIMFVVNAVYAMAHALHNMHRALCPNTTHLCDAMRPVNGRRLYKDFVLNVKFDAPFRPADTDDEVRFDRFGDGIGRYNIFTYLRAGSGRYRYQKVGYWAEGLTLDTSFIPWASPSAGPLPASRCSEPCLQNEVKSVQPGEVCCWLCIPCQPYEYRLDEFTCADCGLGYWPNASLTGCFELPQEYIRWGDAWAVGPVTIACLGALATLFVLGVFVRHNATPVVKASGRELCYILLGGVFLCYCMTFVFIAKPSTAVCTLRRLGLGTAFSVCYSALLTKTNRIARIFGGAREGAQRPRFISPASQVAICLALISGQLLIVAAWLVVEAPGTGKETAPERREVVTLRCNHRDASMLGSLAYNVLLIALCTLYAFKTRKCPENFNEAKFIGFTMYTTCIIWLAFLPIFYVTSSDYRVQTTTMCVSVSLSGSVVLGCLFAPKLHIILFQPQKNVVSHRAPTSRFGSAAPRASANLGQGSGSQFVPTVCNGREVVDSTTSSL
Sequence of Metabotropic glutamate receptor 2 (Rattus norvegicus) (P31421 19-872 limits assumed): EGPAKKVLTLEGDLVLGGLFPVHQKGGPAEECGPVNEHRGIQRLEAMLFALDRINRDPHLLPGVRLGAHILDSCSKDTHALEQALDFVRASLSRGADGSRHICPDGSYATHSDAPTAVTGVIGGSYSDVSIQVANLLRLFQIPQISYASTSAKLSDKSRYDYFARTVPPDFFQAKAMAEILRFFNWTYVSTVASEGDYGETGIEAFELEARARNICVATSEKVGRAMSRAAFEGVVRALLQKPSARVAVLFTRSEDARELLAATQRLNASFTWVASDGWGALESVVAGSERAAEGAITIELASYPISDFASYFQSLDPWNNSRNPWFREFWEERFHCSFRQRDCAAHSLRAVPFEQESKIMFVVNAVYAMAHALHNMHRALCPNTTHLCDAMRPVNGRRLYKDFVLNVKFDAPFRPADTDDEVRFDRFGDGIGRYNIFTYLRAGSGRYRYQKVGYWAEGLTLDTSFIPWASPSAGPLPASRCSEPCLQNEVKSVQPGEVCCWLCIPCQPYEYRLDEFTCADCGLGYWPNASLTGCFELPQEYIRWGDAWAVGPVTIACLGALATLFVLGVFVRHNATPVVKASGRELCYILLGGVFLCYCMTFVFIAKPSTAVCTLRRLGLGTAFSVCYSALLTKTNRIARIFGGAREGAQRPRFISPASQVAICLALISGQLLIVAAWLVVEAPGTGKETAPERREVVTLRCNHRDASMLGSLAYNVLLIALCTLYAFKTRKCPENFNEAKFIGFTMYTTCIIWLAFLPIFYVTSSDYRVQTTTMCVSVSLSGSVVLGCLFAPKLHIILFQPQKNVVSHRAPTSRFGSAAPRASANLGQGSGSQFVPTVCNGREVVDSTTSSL
Sequence of Metabotropic glutamate receptor 3 (Homo sapiens, UniProt Q14832) (Q14832 whole entry): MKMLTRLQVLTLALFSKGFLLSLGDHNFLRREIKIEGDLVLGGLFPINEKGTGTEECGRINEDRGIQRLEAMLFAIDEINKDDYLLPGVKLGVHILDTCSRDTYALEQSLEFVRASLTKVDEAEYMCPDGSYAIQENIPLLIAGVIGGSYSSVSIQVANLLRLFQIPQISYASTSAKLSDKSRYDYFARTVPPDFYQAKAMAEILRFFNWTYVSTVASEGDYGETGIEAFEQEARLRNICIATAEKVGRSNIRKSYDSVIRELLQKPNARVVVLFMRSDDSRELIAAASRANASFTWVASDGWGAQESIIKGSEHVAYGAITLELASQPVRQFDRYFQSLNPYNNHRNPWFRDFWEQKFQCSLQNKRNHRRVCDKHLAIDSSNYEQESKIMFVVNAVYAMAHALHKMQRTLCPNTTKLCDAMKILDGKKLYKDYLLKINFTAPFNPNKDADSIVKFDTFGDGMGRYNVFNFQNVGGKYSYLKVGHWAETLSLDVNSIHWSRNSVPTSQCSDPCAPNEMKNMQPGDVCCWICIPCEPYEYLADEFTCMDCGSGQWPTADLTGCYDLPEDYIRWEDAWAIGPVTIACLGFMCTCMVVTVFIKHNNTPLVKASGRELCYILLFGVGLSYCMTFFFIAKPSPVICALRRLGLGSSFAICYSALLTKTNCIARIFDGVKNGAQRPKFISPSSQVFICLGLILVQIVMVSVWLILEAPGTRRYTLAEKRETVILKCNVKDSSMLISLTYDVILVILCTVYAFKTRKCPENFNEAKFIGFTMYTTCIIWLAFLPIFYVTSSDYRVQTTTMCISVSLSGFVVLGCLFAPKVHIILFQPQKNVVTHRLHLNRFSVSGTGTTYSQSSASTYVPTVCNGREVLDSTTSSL

Row | IC50 [1] [µM] | Emax [2] [%] | fraction unbound at 4 h [3] | fraction unbound at 4 h [4] | fraction unbound [5] | Kp [6] | Kp uu [7] | Compound | also measured
1 | 0.676 | 2.2 | 0.02 | 0.05 | 0.003 | 7.99 | 0.2 | Cc1ccc(OCc2cc3nc(C(N)=O)cc(-c4ccc(F)cc4)c3s2)cn1 | 
2 |  |  |  |  |  |  |  | Cn1ccc(COc2cnc(C(N)=O)cc2-c2ccc(F)cc2)n1 | IC50 [8]: > 30 µM; IC50 [9]: > 30 µM; IC50 [10]: > 30 µM; IC50 [11]: > 30 µM; IC50 [12]: > 30 µM; IC50 [13]: > 30 µM; IC50 [14]: > 30 µM; clearance [15]: 118 mL/min/kg; Kp [16]: 1.9
3 |  |  |  |  |  |  |  | [11CH3]Oc1ccc(-c2cc(C(N)=O)nc3cc(CN4C(=O)CCC4=O)ccc23)c(F)c1 | IC50 [9]: > 30 µM; Kp [16]: 0.3
4 | 0.288 | 35.4 | 0.03 to 0.12 | 0.03 to 0.12 | 0.003 to 0.009 | 2.5 to 2.7 | 0.4 to 0.6 | COc1ccc(-c2cc(C(N)=O)nc3cc(COc4ccnc(C)c4)nn23)c(F)c1 | 
5 | 0.347 | 4.2 | 0.03 to 0.12 | 0.03 to 0.12 | 0.003 to 0.009 | 2.5 to 2.7 | 0.4 to 0.6 | COc1ccc(-c2cc(C(N)=O)nc3cc(COc4ccc(C(F)(F)F)nc4)nn23)c(F)c1 | 
6 | 0.102 | 1.5 | 0.03 to 0.12 | 0.03 to 0.12 | 0.003 to 0.009 | 2.5 to 2.7 | 0.4 to 0.6 | NC(=O)c1cc(-c2ccc(F)cc2F)n2nc(COc3ccnc(C(F)(F)F)c3)cc2n1 | 
7 | 0.087 | 2.3 | 0.04 | 0.02 | 0.006 | 4.25 | 0.59 | NC(=O)c1cc(-c2ccc(F)cc2)n2nc(CCc3ccnc(C(F)(F)F)c3)cc2n1 | 
8 | 0.316 | 2.6 | 0.02 | 0.01 | 0.003 | 3.41 | 0.49 | COc1ccc(-c2cc(C(N)=O)nc3cc(COc4cnc(C)nc4)sc23)cc1 | Emax ([2]; tested as the 2H-labelled form): 2.8%; clearance [17]: 389 mL/min/kg; half-life [18]: 0.238 h; Vd [19]: 6.49 L/kg
9 |  |  |  |  |  |  |  | C[C@@H]1CN(Cc2ccc3c(c2)c(=O)c(C(N)=O)cn3-c2ccc(F)cc2)C[C@H](C)O1 | IC50 [20]: 0.207 µM; IC50 [9]: > 30 µM; Kp [16]: 0.3
10 | 0.794 | 2.4 | 0.03 | 0.01 | 0.007 | 4.04 | 0.86 | NC(=O)c1cc(-c2ccc(F)cc2)n2nc(COc3ccnc(C(F)(F)F)c3)cc2n1 | clearance [17]: 10 mL/min/kg; half-life [18]: 4.28 h; Vd [19]: 3.31 L/kg; clearance [21]: 16.4 mL/min/kg; half-life [22]: 5.53 h; Vd [23]: 6.59 L/kg; IC50 [24]: > 30 µM; IC50 [25]: > 30 µM; IC50 [26]: > 30 µM; IC50 [27]: > 30 µM; IC50 [28]: > 30 µM; IC50 [29]: > 30 µM; IC50 [30]: > 30 µM
11 | 0.55 | 2.3 | 0.05 | 0.01 | 0.005 | 5.67 | 0.52 | C[C@@H]1CN(Cc2cc3nc(C(N)=O)cc(-c4ccc(F)cc4)c3s2)C[C@H](C)O1 | t1/2 [18]: 1.5 h; IC50 [24]: > 30 µM; IC50 [25]: > 30 µM; IC50 [26]: > 30 µM; IC50 [27]: > 30 µM; IC50 [28]: > 30 µM; IC50 [29]: > 30 µM; IC50 [30]: > 30 µM; Cmax [31]: 1.07 µM; AUC [32]: 5.81 µM; Cmax [33]: 6.09 µM; AUC [34]: 32.9 µM; Kp [35]: 5.67; fCmax [36]: 30.4 nM; fAUC [37]: 165 nM
